Experimental data as given in patent US20200163984A1, “USE OF ISOVALERYL SPIRAMYCIN I, II AND/OR III IN MANUFACTURING MEDICAMENT FOR TREATING AND/OR PREVENTING TUMOR, AND MEDICAMENT” (SHENYANG FUYANG PHARMACEUTICAL TECHNOLOGY CO., LTD., priority 2017, published 2020).
Where two headings read alike, the source gives them in different places.

Columns and labels:
[1] = tested on: transplanted tumor of human non-small cell lung cancer cell A549; assay: A549 transplanted tumor in nude mice; conditions: for Tumor Volume (mm3) (d 1): d1
Method: A549 cells in a logarithmic growth phase were taken and subjected to a trypan blue exclusion experiment showing that the cell viability was more than 95%, then the cells were subjected to trypsinization, centrifugation, and supernatant removal. Then cell concentration was adjusted to 1×10^7/ml with matrigel, then each nude mouse was inoculated subcutaneously with 0.2 ml of cells at its right armpit and recorded as the first day of inoculation. When the tumor grows to be greater than or equal to 100 mm^3, the mice were randomly divided into 11 groups with 6 mice in each group: a model group, a cyclophosphamide group, isovaleryl spiramycin I groups with doses of 25, 50 and 100 mg/kg, isovaleryl spiramycin II groups with doses of 25, 50 and 100 mg/kg, and isovaleryl spiramycin III groups with doses of 25, 50 and 100 mg/kg. Each group was continuously administered intragastrically for 30 days with a dose of 20 ml/kg. The mice were sacrificed the next day after drug withdrawal and the indicators were tested. The long diameter and short diameter of the tumor, and the body weight of each mouse were recorded every 3 days from drug administration to nude mouse sacrifice.
(§1) The body weight of the nude mice and the long diameter (a) and short diameter (b) of the transplanted tumor were measured every 3 days, and the tumor volume (v), relative tumor volume (RTV) and relative tumor proliferation rate (T/C) are calculated respectively according to the following formulas, wherein V=a×b^2/2; RTV=V/V0 (V0 is the tumor volume before administration, V is the tumor volume before sacrifice), and T/C (%)=treatment group RTV/model control group RTV×100%.
(§2) Each mouse was weighed and sacrificed. After the tumor was completely stripped off from the body of the mouse, the non-tumor tissues such as blood stains and fat were removed to weigh the tumor and calculate the tumor growth inhibition rate. The average tumor weight of each group of mice is used as an indicator of efficacy. Tumor growth inhibition rate (%)=(1−the average tumor weight of the treatment group/the average tumor weight of the model group)×100%.

[2] = tested on: transplanted tumor of human glioblastoma cell A172; conditions: for Tumor Volume (mm3) (d 1): d1
Method: Then cell concentration was adjusted to 1×10^7/ml with matrigel, then each nude mouse was inoculated subcutaneously with 0.2 ml of cells at its right armpit and recorded as the first day of inoculation. When the tumor grows to be greater than or equal to 100 mm^3, the mice were randomly divided into 11 groups with 6 mice in each group: a model group, a temozolomide group, […], […], […] Each group was continuously administered intragastrically for 30 days with a dose of 20 ml/kg. The mice were sacrificed the next day after drug withdrawal and the indicators were tested. The long diameter and short diameter of the tumor, and the body weight of each mouse were recorded every 3 days from drug administration to nude mouse sacrifice.
as §1, §2

[3] = A549, high dose (100 mg/kg in method) i.g. 30 days
[4] = A549, low dose (25 mg/kg in method) i.g. 30 days
[5] = A549, medium dose (50 mg/kg in method) i.g. 30 days
[6] = A172, high dose (100 mg/kg in method) i.g. 30 days
[7] = A172, low dose (25 mg/kg in method) i.g. 30 days
[8] = A172, medium dose (50 mg/kg in method) i.g. 30 days

COC1C(OC(C)=O)CC(=O)OC(C)CC=CC=CC(OC2CCC(N(C)C)C(C)O2)C(C)CC(CC=O)C1OC1OC(C)C(OC2CC(C)(O)C(OC(=O)CC(C)C)C(C)O2)C(N(C)C)C1O (stereo not shown) [Isovaleryl spiramycin II, isovaleryl spiramycin II]
Relative Tumor Proliferation Rate (T/C) [1, 3]: 39.42% | tumor growth inhibition rate [1, 3]: 60.19% | Relative Tumor Proliferation Rate (T/C) [1, 4]: 83.41% | tumor growth inhibition rate [1, 4]: 20.73% | tumor volume and relative tumor volume compared with the model group ([1]; A549, low, medium and high doses, P<0.05): significantly lower | Relative Tumor Proliferation Rate (T/C) [1, 5]: 58.75% | tumor growth inhibition rate [1, 5]: 31.87% | Inhibition Rate (%) ([1]; A549 nude mice, 25 mg/kg): 20.73% | Relative Tumor Proliferation Rate (T/C) ([1]; A549 nude mice, 25 mg/kg): 83.41% | Relative Tumor Volume (RTV) ([1]; A549 nude mice, 25 mg/kg): 13.54 ± 1.07 | Tumor Weight ([1]; A549 nude mice, 25 mg/kg): 1.90 ± 0.31 g | Tumor Volume (mm3) (d 1) ([1]; A549 nude mice, 25 mg/kg): 119.67 ± 7.25 mm3 | Tumor Volume (mm3) (d30) ([1]; A549 nude mice, 25 mg/kg): 1614.91 ± 65.26 mm3 | Inhibition Rate (%) ([1]; A549 nude mice, 50 mg/kg): 31.87% | Relative Tumor Proliferation Rate (T/C) ([1]; A549 nude mice, 50 mg/kg): 58.75% | Relative Tumor Volume (RTV) ([1]; A549 nude mice, 50 mg/kg): 9.54 ± 2.62 | Tumor Weight ([1]; A549 nude mice, 50 mg/kg): 1.63 ± 0.32 g | Tumor Volume (mm3) (d 1) ([1]; A549 nude mice, 50 mg/kg): 117.96 ± 4.88 mm3 | Tumor Volume (mm3) (d30) ([1]; A549 nude mice, 50 mg/kg): 1129.10 ± 326.54 mm3 | Inhibition Rate (%) ([1]; A549 nude mice, 100 mg/kg): 60.19% | Relative Tumor Proliferation Rate (T/C) ([1]; A549 nude mice, 100 mg/kg): 47.94% | Relative Tumor Volume (RTV) ([1]; A549 nude mice, 100 mg/kg): 7.78 ± 2.03 | Tumor Weight ([1]; A549 nude mice, 100 mg/kg): 0.95 ± 0.42 g | Tumor Volume (mm3) (d 1) ([1]; A549 nude mice, 100 mg/kg): 116.96 ± 6.56 mm3 | Tumor Volume (mm3) (d30) ([1]; A549 nude mice, 100 mg/kg): 917.10 ± 270.86 mm3 | mouse weight compared with the model group ([1]; mouse, in vivo): no significant changes | Body Weight (g) (d1) ([1]; mouse, in vivo, 25 mg/kg): 20.91 ± 1.07 g | Body Weight (g) (d30) ([1]; mouse, in vivo, 25 mg/kg): 21.32 ± 1.88 g | Body Weight (g) (d1) ([1]; mouse, in vivo, 50 mg/kg): 20.03 ± 1.88 g | Body Weight (g) (d30) ([1]; mouse, in vivo, 50 mg/kg): 12.92 ± 1.68 g | Body Weight (g) (d1) ([1]; mouse, in vivo, 100 mg/kg): 21.71 ± 1.94 g | Body Weight (g) (d30) ([1]; mouse, in vivo, 100 mg/kg): 12.42 ± 1.37 g | Relative Tumor Proliferation Rate (T/C) [2, 6]: 42.18% | tumor growth inhibition rate [2, 6]: 40.01% | Relative Tumor Proliferation Rate (T/C) [2, 7]: 74.24% | tumor growth inhibition rate [2, 7]: 10.85% | tumor volume and relative tumor volume compared with the model group ([2]; A172, low, medium and high doses, P<0.05): significantly lower | Relative Tumor Proliferation Rate (T/C) [2, 8]: 50.59% | tumor growth inhibition rate [2, 8]: 15.71% | Inhibition Rate (%) ([2]; A172 nude mice, 12.5 mg/kg): 10.85% | Relative Tumor Proliferation Rate (T/C) ([2]; A172 nude mice, 12.5 mg/kg): 74.24% | Relative Tumor Volume (RTV) ([2]; A172 nude mice, 12.5 mg/kg): 14.73 ± 1.33 | Tumor Weight ([2]; A172 nude mice, 12.5 mg/kg): 1.24 ± 0.12 g | Tumor Volume (mm3) (d 1) ([2]; A172 nude mice, 12.5 mg/kg): 123.39 ± 11.22 mm3 | Tumor Volume (mm3) (d30) ([2]; A172 nude mice, 12.5 mg/kg): 1525.41 ± 255.74 mm3 | Inhibition Rate (%) ([2]; A172 nude mice, 25 mg/kg): 15.71% | Relative Tumor Proliferation Rate (T/C) ([2]; A172 nude mice, 25 mg/kg): 50.59% | Relative Tumor Volume (RTV) ([2]; A172 nude mice, 25 mg/kg): 14.31 ± 0.98 | Tumor Weight ([2]; A172 nude mice, 25 mg/kg): 1.17 ± 0.10 g | Tumor Volume (mm3) (d 1) ([2]; A172 nude mice, 25 mg/kg): 115.96 ± 11.42 mm3 | Tumor Volume (mm3) (d30) ([2]; A172 nude mice, 25 mg/kg): 984.26 ± 197.97 mm3 | Inhibition Rate (%) ([2]; A172 nude mice, 50 mg/kg): 40.01% | Relative Tumor Proliferation Rate (T/C) ([2]; A172 nude mice, 50 mg/kg): 42.18% | Relative Tumor Volume (RTV) ([2]; A172 nude mice, 50 mg/kg): 12.88 ± 1.54 | Tumor Weight ([2]; A172 nude mice, 50 mg/kg): 0.84 ± 0.12 g | Tumor Volume (mm3) (d 1) ([2]; A172 nude mice, 50 mg/kg): 120.28 ± 10.53 mm3 | Tumor Volume (mm3) (d30) ([2]; A172 nude mice, 50 mg/kg): 851.14 ± 215.31 mm3 | mouse weight compared with the model group ([2]; mouse, in vivo): no significant changes | Body Weight (g) (d1) ([2]; mouse, in vivo, 12.5 mg/kg): 21.36 ± 0.67 g | Body Weight (g) (d30) ([2]; mouse, in vivo, 12.5 mg/kg): 21.36 ± 0.87 g | Body Weight (g) (d1) ([2]; mouse, in vivo, 25 mg/kg): 21.10 ± 0.62 g | Body Weight (g) (d30) ([2]; mouse, in vivo, 25 mg/kg): 21.30 ± 0.89 g | Body Weight (g) (d1) ([2]; mouse, in vivo, 50 mg/kg): 21.08 ± 0.74 g | Body Weight (g) (d30) ([2]; mouse, in vivo, 50 mg/kg): 20.97 ± 0.68 g
